This assay concerns the target Genome polyprotein (Dengue virus type 2 (strain Thailand/16681/1984), UniProt P29990). The experiment in a line: Inhibition of DENV2 NS2B-NS3 serine protease expressed in human Huh7 cells after 3 days by luciferase reporter gene assay.

Structures are written as SMILES.

`CC(=O)O[C@H]1CC(C)(C)C(=C=C/C(C)=C/C=C/C=C/C=C(C)/C=C2C=C(/C=C/[C@@]34O[C@]3(C)C[C@@H](O)CC4(C)C)C(=O)O/2)[C@](C)(O)C1` showed a 50% effective concentration (EC50) of 4.5 µM.

Source of the values: BindingDB's records for doi:10.1016/j.ejmech.2019.05.010 (Queensland University of Technology, 2019).
